One experiment has as its target HIV-1 protease (Human immunodeficiency virus type 1 group M subtype B, UniProt P04585). Put plainly: biochemical.
Another experiment concerns HIV-1 (strain IIIB). Nature of the experiment: microbe, parasite or virus in culture. The experiment is classed as cell-based. As to conditions: anti-viral potency in MT-4 cells, read-out: IC50.
The mark [1] stands for this setting: Table 12, HIV-1 protease, read-out: Ki.
[2] abbreviates: Human immunodeficiency virus 1, IIIB, MT4, Table 12.

Molecules are shown by their SMILES. Like-named read-outs stand apart in the source and are kept apart here.

What is called Ki is the dissociation constant of the complex between target and ligand, obtained from inhibition or displacement. As usually defined, the IC50 is the midpoint of a concentration-inhibition curve. In the case of `CC(C)(CCC#N)CN(CC(O)C(Cc1ccccc1)NC(=O)OC1COC2OCCC12)S(=O)(=O)c1ccc2c(c1)OCCO2` (stereo not drawn) [Compound 41], the Ki at HIV-1 protease (setting [1]) is less than 1 nM. In the experiment with HIV-1 (strain IIIB) (Table 12), the IC50 was no more than 100 nM.

For the molecule `CC(C)(CCC#N)CN(C[C@@H](O)[C@H](Cc1ccccc1)NC(=O)OC1COCOC1)S(=O)(=O)c1ccc(O)cc1` [Compound 42, {(1S,2R)-1-Benzyl-3-[(4-cyano-2,2-dimethyl-butyl)-(4-hydroxybenzenesulfonyl)-amino]-2-hydroxy-propyl}-carbamic acid[1,3]dioxan-5-yl ester], on HIV-1 protease (setting [1]), the Ki is less than 1 nM. In the experiment with HIV-1 (strain IIIB) (setting [2]), the IC50 was in the range of 100 to 500 nM.

With `CCN(C(=O)OC(C)(C)C)c1cccc(S(=O)(=O)N(CC(O)C(Cc2ccccc2)NC(=O)OC2COC3OCCC23)CC(C)(C)CCC#N)c1` [Compound 43, {(1S,2R)-3-[(3-N-tert-butoxycarbonyl-N-ethylaminophenyl)sulfonyl]-(4-cyano-2,2-dimethyl-butyl)-amino]-1-benzyl-2-hydroxy-propyl}-carbamic acid (3R,3aS,6aR)hexahydro-furo[2,3-b]furan-3-yl ester], the Ki on HIV-1 protease (setting [1]) was less than 1 nM. For the same molecule, the IC50 in the experiment on HIV-1 (strain IIIB) (setting [2]) was in the range of 100 to 500 nM.

In the case of `COc1ccc(S(=O)(=O)N(C=C(C#N)C#N)C[C@@H](O)[C@H](Cc2ccccc2)NC(=O)OC(C)(C)C)cc1` [Compound 113], the Ki on HIV-1 protease (setting [1]) lay within 10 to 100 nM. The concentration for half-maximal inhibition (IC50) in the experiment with HIV-1 (strain IIIB) (setting [2]) is 500 to 1000 nM.

`COc1ccc(S(=O)(=O)N(CCC#N)C[C@@H](O)[C@H](Cc2ccccc2)NC(=O)O[C@H]2CO[C@H]3OCC[C@H]32)cc1` [Compound 124, {(1S,2R)-3-[(4-methoxybenzenesulfonyl)-(2-cyanoethyl)-amino]-1-benzyl-2-hydroxy-propyl}-carbamic acid (3R,3aS,6aR)hexahydro-furo[2,3-b]furan-3-yl ester]: the Ki on HIV-1 protease (setting [1]) is less than 1 nM. Also, the IC50 with HIV-1 (strain IIIB) (setting [2]) was no more than 100 nM.

Consider `COc1ccc(S(=O)(=O)N(CCC#N)C[C@@H](O)[C@H](Cc2ccccc2)NC(=O)OC2COCOC2)cc1` [Compound 125], for which the Ki on HIV-1 protease (setting [1]) is less than 1 nM. For the same molecule, the IC50 in the experiment on HIV-1 (strain IIIB) (setting [2]) was greater than 1000 nM.

As to `COc1ccc(S(=O)(=O)N(CCCCC2(C)OCCO2)C[C@@H](O)[C@H](Cc2ccccc2)NC(=O)OC(C)(C)C)cc1` [Compound 201, tert-Butyl N-((1S,2R)-1-benzyl-2-hydroxy-3-[(4-methoxyphenyl)sulfonyl][4-(2-methyl-1,3-dioxolan-2-yl)butyl]aminopropyl)carbamate], at HIV-1 protease (setting [1]), the Ki lay within 1 to 10 nM. In the experiment on HIV-1 (strain IIIB) (setting [2]), the IC50 is greater than 1000 nM.

As for `COc1ccc(S(=O)(=O)N(CCCCC2(C)OCCO2)C[C@@H](O)[C@H](Cc2ccccc2)NC(=O)OC(C)(C)C)cc1` [Compound 204, tert-Butyl N-((1S,2R)-1-benzyl-2-hydroxy-3-[(4-methoxyphenyl)sulfonyl][4-(2-methyl-1,3-dioxolan-2-yl)butyl]aminopropyl)carbamate], the Ki on HIV-1 protease (setting [1]) was 1 to 10 nM. In addition, the IC50 with HIV-1 (strain IIIB) (Table 12) was in the range of 500 to 1000 nM.

For the molecule `COc1ccc(S(=O)(=O)N(CCCCC(C)=O)C[C@@H](O)[C@H](Cc2ccccc2)NC(=O)O[C@H]2CCOC2)cc1` [Compound 205, (3S)-Tetrahydro-3-furanyl N-(1S,2R)-1-benzyl-2-hydroxy-3-[[(4-methoxyphenyl)sulfonyl](5-oxohexyl)amino]-propylcarbamate], the Ki on HIV-1 protease (setting [1]) is less than 1 nM. In addition, in the experiment with HIV-1 (strain IIIB) (setting [2]), the IC50 fell in the range of 500 to 1000 nM.

For the molecule `CCC(CCC(C)=O)CN(CC(O)[C@H](Cc1ccccc1)NC(=O)OC1CCOC1)S(=O)(=O)c1ccc(OC)cc1` (stereo partly drawn) [Compound 206, (3S)-Tetrahydro-3-furanyl N-((1S,2R)-1-benzyl-3-(2-ethyl-5-oxohexyl)[(4-methoxyphenyl)sulfonyl]amino-2-hydroxypropyl)carbamate], the Ki at HIV-1 protease (setting [1]) is less than 1 nM. Moreover, in the experiment on HIV-1 (strain IIIB) (setting [2]), the IC50 is no more than 100 nM.

In the case of `COc1ccc(S(=O)(=O)N(CC(C)CCC(C)=O)CC(O)[C@H](Cc2ccccc2)NC(=O)OC2CCOC2)cc1` (stereo partly drawn) [Compound 207, (3S)-Tetrahydro-3-furanyl N-(1S, 2R)-1-benzyl-2-hydroxy-3-[[(4-methoxyphenyl)sulfonyl](2-methyl-5-oxohexyl)amino]propylcarbamate], at HIV-1 protease (setting [1]), the Ki was less than 1 nM. For the same molecule, the concentration for half-maximal inhibition (IC50) in the experiment with HIV-1 (strain IIIB) (setting [2]) is no more than 100 nM.

Regarding `COc1ccc(S(=O)(=O)N(C[C@@H](O)[C@H](Cc2ccccc2)NC(=O)O[C@H]2CCOC2)CC(C)(C)CCC(C)=O)cc1` [Compound 208, (3S)-Tetrahydro-3-furanyl N-((1S,2R)-1-benzyl-3-(2-,2-dimethyl-5-oxohexyl)[(4-methoxyphenyl)sulfonyl]amino-2-hydroxypropyl)carbamate], the inhibition constant (Ki) at HIV-1 protease (setting [1]) is less than 1 nM. Also, the IC50 with HIV-1 (strain IIIB) (setting [2]) was 100 to 500 nM.

Regarding `COc1ccc(S(=O)(=O)N(C[C@@H](O)[C@H](Cc2ccccc2)NC(=O)O[C@H]2CCOC2)CC(C)(C)CCCC(C)=O)cc1` [Compound 209], the Ki at HIV-1 protease (setting [1]) was less than 1 nM. Further, the IC50 in the experiment on HIV-1 (strain IIIB) (setting [2]) fell in the range of 100 to 500 nM.

Regarding `COC(=O)NCCCC(C)(C)CN(CC(O)C(Cc1ccccc1)NC(=O)OC1COC2OCCC12)S(=O)(=O)c1ccc(OC)cc1` [Compound 213, (3R,3aS,6aR)hexahydrofuro[2,3-b]furan-3-yl N-((1S,2R)-1-benzyl-2-hydroxy-3-5-[(methoxycarbonyl)amino]-2,2-dimethylpentyl[(4-methoxyphenyl)sulfonyl]aminopropyl)carbamate and (3S,3aR,6aS)hexahydrofuro[2,3-b]furan-3-yl N-((1S,2R)-1-benzyl-2-hydroxy-3-5-[(methoxycarbonyl)amino]-2,2-dimethylpentyl[(4-methoxyphenyl)sulfonyl]aminopropyl)carbamate], on HIV-1 protease (setting [1]), the Ki is less than 1 nM. Further, the IC50 in the experiment on HIV-1 (strain IIIB) (setting [2]) is no more than 100 nM.

`COc1ccc(S(=O)(=O)N(CC(O)C(Cc2ccccc2)NC(=O)OC2COC3OCCC23)CC(C)(C)CCCNS(C)(=O)=O)cc1` [Compound 215, (3R,3aS,6aR)hexahydrofuro[2,3-b]furan-3-yl N-((1S,2R)-1-benzyl-3-2,2-dimethyl-5-[(methylsulfonyl)amino]pentyl[(4-methoxyphenyl)sulfonyl]amino-2-hydroxypropyl)carbamate and (3S,3aR, 6aS)hexahydrofuro[2,3-b]furan-3-yl N-((1s,2R)-1-benzyl-3-2,2-dimethyl-5-[(methylsulfonyl)amino]pentyl[(4-methoxyphenyl)sulfonyl]amino-2-hydroxypropyl)carbamate]: on HIV-1 protease (setting [1]), the Ki was less than 1 nM. Also, the IC50 in the experiment with HIV-1 (strain IIIB) (setting [2]) was no more than 100 nM.

Regarding `COC(=O)NCCC(C)(C)CN(CC(O)C(Cc1ccccc1)NC(=O)OC1COC2OCCC12)S(=O)(=O)c1ccc(OC)cc1` [Compound 218, (3R,3aS,6aR)hexahydrofuro[2,3-b]furan-3-yl N-((1S,2R)-1-benzyl-2-hydroxy-3-4-[(methoxycarbonyl)amino]-2,2-dimethylbutyl[(4-methoxyphenyl)sulfonyl]aminopropyl)carbamate and (3S,3aR,6aS)hexahydrofuro[2,3-b]furan-3-yl N-((1S,2R)-1-benzyl-2-hydroxy-3-4-[(methoxycarbonyl)amino]-2,2-dimethylbutyl[(4-methoxyphenyl)sulfonyl]aminopropyl)carbamate], the Ki on HIV-1 protease (setting [1]) was less than 1 nM. In addition, the IC50 in the experiment with HIV-1 (strain IIIB) (setting [2]) is no more than 100 nM.

On HIV-1 protease, `COc1ccc(S(=O)(=O)N(CC(O)C(Cc2ccccc2)NC(=O)OC2COC3OCCC23)CC(C)(C)CCNS(C)(=O)=O)cc1` [Compound 220, (3R,3aS,6aR)hexahydrofuro[2,3-b]furan-3-yl N-((1S,2R)-1-benzyl-3-2,2-dimethyl-4-[(methylsulfonyl)amino]butyl[(4-methoxyphenyl)sulfonyl]amino-2-hydroxypropyl)carbamate and (3S,3aR,6aS)hexahydrofuro[2,3-b]furan-3-yl N-((1S,2R)-1-benzyl-3-2,2-dimethyl-4-[(methylsulfonyl)amino]butyl[(4-methoxyphenyl)sulfonyl]amino-2-hydroxypropyl)carbamate] returned a Ki of less than 1 nM. For the same molecule, the IC50 with HIV-1 (strain IIIB) (setting [2]) was no more than 100 nM.

On to `CNC(=O)OCCC(C)(C)CN(CC(O)[C@H](Cc1ccccc1)NC(=O)OC1COC2OCCC12)S(=O)(=O)c1ccc(OC)cc1` (stereo partly drawn) [Compound 221, (3R,3aS,6aR)-Hexahydrofuro[2,3-b]furan-3-yl N-((1S,2R)-1-benzyl-3-(2,2-dimethyl-4-N′-methylcarbamoyloxybutyl)[(4-methoxyphenyl)sulfonyl]amino-2-hydroxypropyl)carbamate], for which the Ki on HIV-1 protease (setting [1]) was less than 1 nM. The IC50 with HIV-1 (strain IIIB) (setting [2]) was no more than 100 nM.

As for `COC(=N[N+](=O)[O-])NCCC(C)(C)CN(CC(O)C(Cc1ccccc1)NC(=O)OC1COC2OCCC12)S(=O)(=O)c1ccc(OC)cc1` (stereo not drawn) [Compound 223], the Ki at HIV-1 protease (setting [1]) is less than 1 nM. Besides, the IC50 with HIV-1 (strain IIIB) (setting [2]) was no more than 100 nM.

Consider `CNC(=O)CNC(=O)NCCCC(C)(C)CN(CC(O)C(Cc1ccccc1)NC(=O)OC1COC2OCCC12)S(=O)(=O)c1ccc(OC)cc1` [Compound 225, (3R,3aS,6aR)hexahydrofuro[2,3-b]furan-3-yl N-(1S,2R)-1-benzyl-2-hydroxy-4-[(4-methoxyphenyl)sulfonyl]-6,6-dimethyl-11,14-dioxo-4,10,12,15-tetraazahexadec-1-ylcarbamate and (3S,3aR,6aS)hexahydrofuro[2,3-b]furan-3-yl N-(1S,2R)-1-benzyl-2-hydroxy-4-[(4-methoxyphenyl)sulfonyl]-6,6-dimethyl-11,14-dioxo-4,10,12,15-tetraazahexadec-1-ylcarbamate], for which the Ki on HIV-1 protease (setting [1]) is less than 1 nM. For the same molecule, the IC50 with HIV-1 (strain IIIB) (setting [2]) was greater than 1000 nM.

For `CCOC(=O)NCCC(C)(C)CN(CC(O)C(Cc1ccccc1)NC(=O)OC1COC2OCCC12)S(=O)(=O)c1ccc(OC)cc1` [Compound 226, (3R,3aS,6aR)hexahydrofuro[2,3-b]furan-3-yl N-((1S,2R)-1-benzyl-3-4-[(ethoxycarbonyl)amino]-2,2-dimethylbutyl[(4-methoxyphenyl)sulfonyl]amino-2-hydroxypropyl)carbamate and (3S,3aR,6aS)hexahydrofuro[2,3-b]furan-3-yl N-((1S,2R)-1-benzyl-3-4-[(ethoxycarbonyl)amino)-2,2-dimethylbutyl[(4-methoxyphenyl)sulfonyl]amino-2-hydroxypropyl)carbamate], the Ki on HIV-1 protease (setting [1]) is less than 1 nM. Further, in the experiment on HIV-1 (strain IIIB) (setting [2]), the IC50 is no more than 100 nM.

For the origin of these results see patent publication US6617350B2, “Inhibitors of aspartyl protease” (priority 1999, dated 2003).
